Assay results published in patent US20210347794A1, “Phosphate Derivatives of Indole Compounds and Their Use” (ARIAGEN, INC., priority 2018, published 2021).

Assays:
[1] = In vivo pharmacokinetic study in rats, IV or oral dose of ARI-160
Description: This example describes pharmacokinetic (PK) studies of ARI-158 and ARI-160 in dogs and rats, respectively. In the present studies, the test compounds were given to groups of male beagle dogs and rats (N=3 in each group) intravenously (IV) at 2 mg/kg or orally (PO) at 10 mg/kg. IV doses were formulated in DMSO, while PO doses were formulated in a 50/50 mixture of PEG400 and Tween 80. Blood samples were collected at pre-dose and over a period of 24 hours post-dose. Plasma concentrations of the indolo-phosphoramidate compounds were determined by HPLC.

EMT-6 cancer cells = assay: Anti-tumor activity in EMT-6 syngeneic mouse tumor model; type: in vivo; conditions: 80 mpk
Description: This example describes in vivo studies that evaluated the anti-cancer efficacy of ARI-158 and ARI-160 in syngeneic mouse tumor models. Mice implanted subcutaneously with EMT-6 cancer cells were treated with ARI-158 and ARI-160, or vehicle controls, as described below.
A monolayer culture of tumor cells was maintained in vitro in DMEM or RPMI1640 medium supplemented with 10% fetal bovine serum at 37° C. in an atmosphere of 5% CO2. Cells in exponential growth phase were harvested and quantitated by cell counter before tumor inoculation.
EMT-6 syngeneic mouse tumor models were generated by inoculating female BALB/C 6 mice with EMT-6 cancer cells at their right lower flank.
Each mouse was inoculated subcutaneously with tumor cells in 0.1 mL of PBS. Treatments were started when the mean tumor size reached approximately 80-120 mm^3 (around 100 mm^3). The administration of the test compounds and the animal number in each study group are shown in the study design. The date of tumor cell inoculation was denoted as day 0.
ARI-158 and ARI-160 were dissolved in DMSO at the final concentration of 26.7 mg/ml and stored at room temperature.
Randomization of animals was started when the mean tumor size reached approximately 90 mm^3 to form the mouse study groups. The randomization was performed based on “Matched distribution” method using the multi-task method (StudyDirector™ software, version 3.1.399.19)/randomized block design. […]
Tumor volumes were measured twice per week in two dimensions using a caliper, and the volume was expressed in mm^3 using the formula: […]
where V is tumor volume, L is tumor length (the longest tumor dimension) and W is tumor width (the longest tumor dimension perpendicular to L). Dosing as well as tumor and body weight measurements was conducted in a Laminar Flow Cabinet. The body weights and tumor volumes were measured by using StudyDirector™ software (version 3.1.399.19).
Tumor growth inhibition percentage (TGI %) is an indicator for antitumor activity of a drug compound, and expressed as: […]
where T and C are the mean tumor volume (or weight) of the treated and control groups, respectively, on a given day. Statistical analysis of the difference in mean tumor volume (MTV) among the groups was conducted using the data collected on the day when the MTV of the vehicle group reached the humane endpoints, so that TGI could be derived for all or most mice enrolled in the study.

[2] = IV 2 mg/kg ARI-160, Animal_ID 1
[3] = IV 2 mg/kg ARI-160, Animal_ID 2
[4] = IV 2 mg/kg ARI-160, Animal_ID 3
[5] = PO 10 mg/kg ARI-160, Animal_ID 4
[6] = PO 10 mg/kg ARI-160, Animal_ID 5
[7] = PO 10 mg/kg ARI-160, Animal_ID 6

`CCC(=O)c1csc(C(=O)c2cn(COP(=O)([O-])[O-])c3cc(F)ccc23)n1.[Na+].[Na+]` [ARI-160] gave an AUCinf [1, 2] of 5140 ng·h/mL, an AUClast [1, 2] of 5120 ng·h/mL and a Cl [1, 2] of 6.48 mL/min/kg. It also gave a Cmax [1, 2] of 16100 ng/mL, an MRTinf [1, 2] of 13.8 min and an MRTlast [1, 2] of 12.6 min. The Tmax [1, 2] was 4.98 min, the T½ [1, 2] was 37.2 min and the Vss [1, 2] was 0.0898 L/kg. For the same compound, the AUCinf [1, 3] was 3950 ng·h/mL, the AUClast [1, 3] was 3930 ng·h/mL and the Cl [1, 3] was 8.43 mL/min/kg. For the same compound, the Cmax [1, 3] was 12100 ng/mL, the MRTinf [1, 3] was 15.6 min and the MRTlast [1, 3] was 13.8 min. The Tmax [1, 3] was 4.98 min, the T½ [1, 3] was 51.6 min and the Vss [1, 3] was 0.132 L/kg. The AUCinf [1, 4] was 8590 ng·h/mL, the AUClast [1, 4] was 8590 ng·h/mL and the Cl [1, 4] was 3.88 mL/min/kg. It also gave a Cmax [1, 4] of 24600 ng/mL, an MRTinf [1, 4] of 10.8 min and an MRTlast [1, 4] of 10.8 min. For the same compound, the Tmax [1, 4] was 4.98 min, the T½ [1, 4] was 54 min and the Vss [1, 4] was 0.042 L/kg. It also gave an AUCinf ([1]; IV 2 mg/kg ARI-160, Mean) of 5890 ng·h/mL, an AUClast ([1]; IV 2 mg/kg ARI-160, Mean) of 5880 ng·h/mL and a Cl ([1]; IV 2 mg/kg ARI-160, Mean) of 6.27 mL/min/kg. For the same compound, the Cmax ([1]; IV 2 mg/kg ARI-160, Mean) was 17600 ng/mL, the MRTinf ([1]; IV 2 mg/kg ARI-160, Mean) was 13.2 min and the MRTlast ([1]; IV 2 mg/kg ARI-160, Mean) was 12.6 min. The Tmax ([1]; IV 2 mg/kg ARI-160, Mean) was 4.98 min, the T½ ([1]; IV 2 mg/kg ARI-160, Mean) was 47.4 min and the Vss ([1]; IV 2 mg/kg ARI-160, Mean) was 0.0878 L/kg. For the same compound, the bioavailability ([1]; IV versus oral dosing) was “better bioavailability with an IV dosing”, the AUCinf [1, 5] was 23.3 ng·h/mL and the AUClast [1, 5] was 13.3 ng·h/mL. It also gave a Cmax [1, 5] of 12.7 ng/mL, an MRTinf [1, 5] of 139 min and an MRTlast [1, 5] of 51.8 min. For the same compound, the Tmax [1, 5] was 15 min, the T½ [1, 5] was 94.8 min and the AUCinf [1, 6] was 51.8 ng·h/mL. It also gave an AUClast [1, 6] of 32.1 ng·h/mL, a Cmax [1, 6] of 10.1 ng/mL and an MRTinf [1, 6] of 505 min. It also gave an MRTlast [1, 6] of 195 min, a Tmax [1, 6] of 15 min and a T½ [1, 6] of 368 min. It also gave an AUCinf [1, 7] of 22.5 ng·h/mL, an AUClast [1, 7] of 11.0 ng·h/mL and a Cmax [1, 7] of 6.75 ng/mL. For the same compound, the MRTinf [1, 7] was 574 min, the MRTlast [1, 7] was 121 min and the Tmax [1, 7] was 15 min. For the same compound, the T½ [1, 7] was 364 min, the AUCinf ([1]; PO 10 mg/kg ARI-160, Mean) was 32.5 ng·h/mL and the AUClast ([1]; PO 10 mg/kg ARI-160, Mean) was 18.8 ng·h/mL. It also gave a Cmax ([1]; PO 10 mg/kg ARI-160, Mean) of 9.85 ng/mL, a F. ([1]; PO 10 mg/kg ARI-160, Mean) of 0.110% and an MRTinf ([1]; PO 10 mg/kg ARI-160, Mean) of 406 min. It also gave an MRTlast ([1]; PO 10 mg/kg ARI-160, Mean) of 122 min, a Tmax ([1]; PO 10 mg/kg ARI-160, Mean) of 15 min and a T½ ([1]; PO 10 mg/kg ARI-160, Mean) of 275 min. The “provision of ARI-143” value ([1]; after administration of ARI-160) was “provided ARI-143 after oral as well as IV administration”, the TGI (EMT-6 cancer cells; study day 6) was 0.01% and the TGI (EMT-6 cancer cells; study day 10) was 30.95%. The TGI (EMT-6 cancer cells; study day 13) was 30.58%, the TGI (EMT-6 cancer cells; study day 17) was 20.47% and the TGI (EMT-6 cancer cells; study day 20) was 32.25%. For the same compound, the TGI (EMT-6 cancer cells; study day 24) was 33.19%, the TGI (EMT-6 cancer cells; study day 27) was 22.24% and the TGI (EMT-6 cancer cells; study day 31) was 12.40%.
